Source: patent US8487121B2, “Chromane derivatives as TRPV3 modulators” (Glenmark Pharmaceuticals S.A., priority 2007, dated 2013)

Target: T1, Human TRPV3 (Homo sapiens, UniProt Q8NET8)
T1 construct: expressed in transfected cells; host or cells: CHO cells (G-418 selected)
T1 sequence (Q8NET8 1-790): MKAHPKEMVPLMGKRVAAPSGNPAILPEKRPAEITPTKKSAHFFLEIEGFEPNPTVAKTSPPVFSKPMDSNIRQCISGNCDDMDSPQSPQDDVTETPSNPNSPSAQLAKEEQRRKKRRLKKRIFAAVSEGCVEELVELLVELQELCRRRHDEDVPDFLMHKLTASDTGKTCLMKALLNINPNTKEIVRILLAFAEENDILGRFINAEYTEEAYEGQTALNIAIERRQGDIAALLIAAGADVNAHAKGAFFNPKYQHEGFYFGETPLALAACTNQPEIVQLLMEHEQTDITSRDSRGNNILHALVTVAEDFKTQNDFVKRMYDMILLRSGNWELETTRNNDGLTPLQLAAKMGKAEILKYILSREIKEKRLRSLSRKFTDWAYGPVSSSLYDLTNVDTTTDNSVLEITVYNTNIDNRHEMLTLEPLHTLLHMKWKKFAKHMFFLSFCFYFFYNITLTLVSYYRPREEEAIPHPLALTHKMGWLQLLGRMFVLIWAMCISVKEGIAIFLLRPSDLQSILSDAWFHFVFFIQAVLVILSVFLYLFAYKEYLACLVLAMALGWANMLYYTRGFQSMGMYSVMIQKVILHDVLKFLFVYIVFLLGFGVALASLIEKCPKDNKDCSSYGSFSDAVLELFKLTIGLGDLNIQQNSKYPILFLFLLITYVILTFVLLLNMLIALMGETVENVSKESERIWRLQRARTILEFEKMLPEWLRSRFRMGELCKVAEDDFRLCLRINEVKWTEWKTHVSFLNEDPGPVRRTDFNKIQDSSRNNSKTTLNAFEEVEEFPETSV
Assay: 45Calcium uptake assay: inhibition of 2-APB induced cellular uptake of radioactive calcium
Assay type: cell-based
Conditions: human TRPV3 expressing CHO cells, 2-APB 500 μM
In short: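 CHO cells stably expressing human TRPV3 (~50,000/well) were preincubated with compounds for 10 min in medium containing 0.1% BSA, 1.8 mM CaCl2 and 0.5% DMSO. Then 500 μM 2-APB and 5 μCi/ml 45Ca2+ were added for 4 min. Lysate radioactivity was expressed as % of maximal uninhibited response, and IC50 came from nonlinear regression, alongside % inhibition at 1.0 and 10.0 μM.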

inhibition at 1 µM (1.0 μM compound, read-out: Percentage inhibition at 1.0 μM): 51.3% | inhibition at 10 µM (10.0 μM compound, read-out: Percentage inhibition at 10.0 μM): 92.5%
SMILES: COc1cccc(CCCC(=O)NC2CCSc3ccc(Cl)cc32)c1OC1CCCC1 (centres unmarked) [Example 104, N-(6-chloro-3,4-dihydro-2H-thiochromen-4-yl)-4-(2-cyclopentyloxy-3-methoxyphenyl)-butanamide]
